Values of other authors in patent US20250075209A1, “RNAS FOR COMPLEMENT INHIBITION” (Apellis Pharmaceuticals, Inc., priority 2021, published 2025).
Bridges are numbered along the chain shown (N, C = ends). [ ]: non-standard residue; d: D form. Bpa = N[C@@H](Cc1ccc(C(=O)c2ccccc2)cc1)C(=O)O; 1Nal = N[C@@H](Cc1cccc2ccccc12)C(=O)O; 2Nal = N[C@@H](Cc1ccc2ccccc2c1)C(=O)O; Igl = N[C@H](C(=O)O)C1Cc2ccccc2C1

System: complement activation
Conditions: relative to compstatin amidated at the C-terminus; based on published data (WO2004/026328, WO2007044668, Mallik 2005, Katragadda 2006); cited from earlier work

| Substance | Activity over compstatin [xmore] |
| --- | --- |
| H-GICV(6fW)QD(6fW)GAHRCTN-COOH (GICVXQDXGAHRCTN; not fully specified; 6-fluoro-Trp residues; C-terminal acid; SITE 1 N-term H - hydrogenated Glycine; SITE 5 6-fluoro-tryptophan; SITE 8 6-fluoro-tryptophan; SITE 15 C-term COOH - Asparagine carboxide) [+G/V4(6fW)/W7(6fW)H9A + N-OH] | 126 |
| Ac-ICV(2-Igl)QDWGAHRCT-CONH2 (Ac-ICV[Igl]QDWGAHRCT-NH2; not fully specified (bridges); printed as Ac-ICV(2-Igl)QDWGAHRCT-CONH2; cysteine pairing not given here) [Ac-V42Igl/H9A] | 39 |
| Ac-ICVWQDWGAHRCdT-COOH [Ac-V4W/H9A/T13dT-OH] | 55 |
| Ac-ICV(1-Nal)QDWGAHRCT-COOH (Ac-ICV[1Nal]QDWGAHRCT-OH; not fully specified (bridges); printed as Ac-ICV(1-Nal)QDWGAHRCT-COOH; cysteine pairing not given here) [Ac V4(1-Nal)/H9A-OH] | 30 |
| Ac-ICVWQDWGAHRCT-CONH2 (Ac-ICVWQDWGAHRCT-NH2; disulfide 2-12 (inferred)) [Ac-V4W/H9A] | 45 |
| Ac-ICVVQDWGHHRCT-CONH2 [Ac-compstatin] | 3 |
| Ac-ICV(2-Nal)CQDWGAHRCT-ONH2 (Ac-ICV[2Nal]QDWGAHRCT-NH2; ends and bridges not checked) [Ac-V4(2-Nal)/H9A] | 99 |
| Ac-ICV(2-Igl)QDWGAHRCT-COOH (Ac-ICV[Igl]QDWGAHRCT-OH; not fully specified (bridges); printed as Ac-ICV(2-Igl)QDWGAHRCT-COOH; cysteine pairing not given here) [Ac-V42Igl/H9A-OH] | 37 |
| Ac-ICV(Bpa)QDWGAHRCT-COOH (Ac-ICV[Bpa]QDWGAHRCT-OH; not fully specified (bridges); printed as Ac-ICV(Bpa)QDWGAHRCT-COOH; cysteine pairing not given here) [Ac-V4(Bpa)/H9A-OH] | 49 |
| Ac-ICV(2-Nal)QDWGAHRCT-COOH (Ac-ICV[2Nal]QDWGAHRCT-OH; not fully specified (bridges); printed as Ac-ICV(2-Nal)QDWGAHRCT-COOH; cysteine pairing not given here) [Ac V4(2-Nal)/H9A-OH] | 38 |
| Ac-ICV(Bpa)QDWGAHRCT-CONH2 (Ac-ICV[Bpa]QDWGAHRCT-NH2; not fully specified (bridges); printed as Ac-ICV(Bpa)QDWGAHRCT-CONH2; cysteine pairing not given here) [Ac-V4(Bpa)/H9A] | 86 |
| Ac-ICVYQDWGAHRCT-CONH2 [Ac-V4Y/H9A] | 14 |
